Results reported in patent publication US10519114B2, “Peptidomimetics and methods of using the same” (The Regents of the University of Michigan, priority 2016, dated 2019).

Tests used:
[1] = target: T1, rat μ (C6-MOR) opioid receptor (Rattus norvegicus, UniProt P33535); experiment: Radioligand binding assay, [3H]diprenorphine displacement, MOR; conditions: displacement of 0.2 nM [3H]diprenorphine, C6-MOR membranes; mean ± standard error
T1 construct: expressed in transfected cells
Experimental: (§1) In Vitro Pharmacology-Cell Lines and Membrane Preparations. All tissue culture reagents were purchased from Gibco Life Sciences (Grand Island, N.Y., U.S.). C6-rat glioma cells stably transfected with a rat μ (C6-MOR) or rat δ (C6-DOR) opioid receptor20 and Chinese hamster ovary (CHO) cells stably expressing a human K (CHO-KOR) opioid receptor21 were used for all in vitro assays. Cells were grown to confluence at 37° C. in 5% CO2 in Dulbecco's modified Eagle medium containing 10% fetal bovine serum and 5% penicillin/streptomycin. Membranes were prepared by washing confluent cells three times with ice cold phosphate buffered saline (0.9% NaCl, 0.61 mM Na2HPO4, 0.38 mM KH2PO4, pH 7.4). Cells were detached from the plates by incubation in warm harvesting buffer (20 mM HEPES, 150 mM NaCl, 0.68 mM EDTA, pH 7.4) and pelleted by centrifugation at 200 g for 3 min. The cell pellet was suspended in ice-cold 50 mM Tris-HCl buffer, pH 7.4, and homogenized with a Tissue Tearor (Biospec Products, Inc., Bartlesville, Okla., U.S.) for 20 s at setting 4. The homogenate was centrifuged at 20 000 g for 20 min at 4° C., and the pellet was rehomogenized in 50 mM Tris-HCl with a Tissue Tearor for 10 s at setting 2, followed by recentrifugation. The final pellet was resuspended in 50 mM Tris-HCl and frozen in aliquots at […]. Protein concentration was determined via Bradford assay using bovine serum albumin as the standard.
(§2) Radioligand Binding Assays. Radioactive compounds were purchased from Perkin-Elmer (Waltham, Mass., U.S.). Opioid ligand binding assays were performed using competitive displacement of 0.2 nM [3H]diprenorphine (250 μCi, 1.85 TBq/mmol) by the test compound from membrane preparations containing opioid receptors. The assay mixture, containing membrane suspension (20 μg protein/tube) in 50 mM Tris-HCl buffer (pH 7.4), [3H]diprenorphine, and various concentrations of test peptide, was incubated at room temperature for 1 h to allow binding to reach equilibrium. The samples were rapidly filtered through Whatman GF/C filters using a Brandel harvester (Brandel, Gaithersburg, Md., U.S.) and washed three times with 50 mM Tris-HCl buffer. The radioactivity retained on dried filters was determined by liquid scintillation counting after saturation with EcoLume liquid scintillation cocktail in a Wallac 1450 MicroBeta (Perkin-Elmer, Waltham, Mass., U.S.). Nonspecific binding was determined using 10 μM naloxone. Inhibitory constant (Ki) values were calculated using nonlinear regression analysis to fit a logistic equation to the competition data using GraphPad Prism, version 5.01, for Windows (GraphPad Software Inc., La Jolla, Calif.). The results presented are the mean±standard error from at least three separate assays performed in duplicate.

[2] = target: T2, rat δ (C6-DOR) opioid receptor (Rattus norvegicus, UniProt P33533); experiment: Radioligand binding assay, [3H]diprenorphine displacement, DOR; conditions: displacement of 0.2 nM [3H]diprenorphine, C6-DOR membranes; mean ± standard error
T2 construct: expressed in transfected cells
T2 sequence (P33533 whole entry): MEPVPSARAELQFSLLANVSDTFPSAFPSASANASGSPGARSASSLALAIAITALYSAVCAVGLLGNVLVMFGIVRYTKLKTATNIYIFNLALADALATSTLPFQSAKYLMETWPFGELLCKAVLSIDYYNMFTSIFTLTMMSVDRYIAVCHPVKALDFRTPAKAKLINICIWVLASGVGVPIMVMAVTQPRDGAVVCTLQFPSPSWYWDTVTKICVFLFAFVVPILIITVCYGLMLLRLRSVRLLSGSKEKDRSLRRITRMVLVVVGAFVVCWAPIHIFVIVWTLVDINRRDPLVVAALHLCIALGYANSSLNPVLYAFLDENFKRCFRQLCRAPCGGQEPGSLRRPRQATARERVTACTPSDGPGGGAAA
Experimental: as §1, §2

[3] = target: T3, human κ (CHO-KOR) opioid receptor (Homo sapiens, UniProt P41145); experiment: Radioligand binding assay, [3H]diprenorphine displacement, KOR; conditions: displacement of 0.2 nM [3H]diprenorphine, CHO-KOR membranes; mean ± standard error
T3 construct: expressed in transfected cells
T3 sequence (P41145 whole entry): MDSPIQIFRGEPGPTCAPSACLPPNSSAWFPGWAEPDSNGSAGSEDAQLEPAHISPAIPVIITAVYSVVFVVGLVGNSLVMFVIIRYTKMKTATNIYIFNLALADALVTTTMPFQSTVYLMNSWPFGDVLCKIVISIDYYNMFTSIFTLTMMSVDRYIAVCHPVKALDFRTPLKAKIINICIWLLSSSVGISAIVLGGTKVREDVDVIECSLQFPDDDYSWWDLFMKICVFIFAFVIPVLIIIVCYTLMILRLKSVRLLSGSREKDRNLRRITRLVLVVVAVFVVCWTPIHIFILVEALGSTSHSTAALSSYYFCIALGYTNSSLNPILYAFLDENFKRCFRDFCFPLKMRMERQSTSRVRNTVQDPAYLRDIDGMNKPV
Experimental: as §1, §2

[4] = target: T1, rat μ (C6-MOR) opioid receptor; experiment: Stimulation of [35S]GTPγS binding, MOR; type: biochemical; conditions: for Emax / % stimulation MOR: [35S]GTPγS maximal stimulation compared with 10 μM standard DAMGO
Experimental: as §1
(§3) Stimulation of [^35S]GTPyS Binding. Agonist stimulation of [35S]guanosine 5′-O-[γ-thio]triphosphate ([^35S]GTPγS, 1250 Ci, 46.2 TBq/mmol) binding was measured as described previously Briefly, membranes (10-20 μg of protein/tube) were incubated 1 h at room temperature in GTPyS buffer (50 mM Tris-HCl, 100 mM NaCl, 5 mM MgCl2, pH 7.4) containing 0.1 nM [^35S]GTPγS, 30 μM guanosine diphosphate (GDP), and varying concentrations of test peptides. Peptide stimulation of [^35S]GTPyS was compared with 10 μM standard compounds [D-Ala^2,N-MePhe^4,Gly-ol]encephalin (DAMGO) at MOR, D-Pen^2,5-enkephalin (DPDPE) at DOR, or […] at KOR. The reaction was terminated by rapidly filtering through GF/C filters and washing 10 times with GTPyS buffer, and retained radioactivity was measured as described above. The results presented are the mean±standard error from at least three separate assays performed in duplicate; maximal stimulation was determined using nonlinear regression analysis with GraphPad Prism (GraphPad Software Inc., La Jolla, Calif.).

[5] = target: T2, rat δ (C6-DOR) opioid receptor; experiment: Stimulation of [35S]GTPγS binding, DOR; type: biochemical; conditions: for EC50 / EC50 (nm) DOR: [35S]GTPγS binding, C6-DOR membranes, mean ± standard error; for Emax / % stimulation DOR: [35S]GTPγS maximal stimulation compared with 10 μM standard DPDPE
Experimental: as §1, §3

[6] = target: T3, human κ (CHO-KOR) opioid receptor; experiment: Stimulation of [35S]GTPγS binding, KOR; type: biochemical
Experimental: as §1, §3

[7] = [35S]GTPγS binding, C6-MOR membranes, mean ± standard error

T1 sequence (P33535 whole entry): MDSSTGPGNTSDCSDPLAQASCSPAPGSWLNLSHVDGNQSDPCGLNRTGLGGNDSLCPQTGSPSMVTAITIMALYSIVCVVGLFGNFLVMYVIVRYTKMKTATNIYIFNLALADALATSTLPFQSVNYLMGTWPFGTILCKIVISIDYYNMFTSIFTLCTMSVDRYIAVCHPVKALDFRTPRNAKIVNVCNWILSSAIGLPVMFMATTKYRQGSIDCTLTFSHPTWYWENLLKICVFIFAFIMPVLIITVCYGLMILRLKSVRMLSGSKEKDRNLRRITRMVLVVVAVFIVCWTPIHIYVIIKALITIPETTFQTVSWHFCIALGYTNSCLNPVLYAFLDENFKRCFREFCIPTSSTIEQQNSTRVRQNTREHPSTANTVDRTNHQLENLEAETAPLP

Row | SMILES | Ki [1] | Ki [2] | Ki [3] | EC50 [4, 7] | Emax [4] | EC50 [5] | Emax [5] | EC50 (nm) DOR [5] | % stimulation DOR [5] | EC50 (nm) MOR [4, 7] | % stimulation MOR [4] | EC50 ([6]; [35S]GTPγS binding, CHO-KOR membranes, mean ± standard error) | Emax ([6]; [35S]GTPγS maximal stimulation compared with 10 μM standard U-69,593)
1 | Cc1cc(O)cc(C)c1C[C@H](N)C(=O)N[C@H]1CCNc2ccc(Oc3ccccc3)cc21 [Compound 1018] | 41.3 ± 6.34 nM | 277 ± 47.4 nM | 494 nM | 1300 nM | 16.6 ± 16.6% | 2000 nM | 19.6% |  |  |  |  |  | 
2 | Cc1cc(O)cc(C)c1C[C@H](N)C(=O)N[C@@H]1CCNc2ccc(Cn3n[n+]([O-])c4ccc(Cl)cc43)cc21 [Compound 1047] | 0.35 ± 0.05 nM | 3.54 ± 0.83 nM | 22.5 ± 8.83 nM | 3.45 ± 0.67 nM | 81.6 ± 1.48% |  |  | dns | dns |  |  |  | 
3 | Cc1cc(O)cc(C)c1C[C@H](N)C(=O)N[C@@H]1CC[C@@H](C)c2ccc(Cc3ccccc3)cc21 [Compound 1121] | 0.32 ± 0.1 nM | 15.8 ± 4.72 nM |  |  |  | 109 ± 80.7 nM | 14.3 ± 4.34% |  |  | dns | dns |  | 
4 | Cc1cc(O)cc(C)c1C[C@H](N)C(=O)N[C@@H]1CCNc2ccc(CN3CCNCC3)cc21 [Compound 1059] | 16.6 ± 8.63 nM | 1560 ± 288 nM | 11.7 ± 1.56 nM | 90.5 ± 73.2 nM |  |  |  |  |  |  | dns |  | 
5 | CC(=O)N1CC[C@@H](NC(=O)[C@@H](N)Cc2c(C)cc(O)cc2C)c2cc(Cc3ccccc3)cc(Cc3ccccc3)c21 [Compound 1042] | 0.35 nM | 0.35 nM | 12.1 nM | 14.7 nM | 75.1% | 14.2 nM | 30.1% |  |  |  |  |  | 
6 | COc1cc2c(cc1Cc1ccccc1)[C@H](NC(=O)[C@@H](N)Cc1c(C)cc(O)cc1C)CCN2 [Compound 1045] | 0.26 ± 0.09 nM | 2.84 ± 0.78 nM | 8.51 nM | 8.03 ± 3.15 nM | 98.4 ± 2.54% | 135 nM | 32.5% |  |  |  |  |  | 
7 | Cc1cc(O)cc(C)c1C[C@H](N)C(=O)N[C@@H]1CCCc2ccc(Oc3ccccc3)cc21 [Compound 1118] | 0.33 ± 0.09 nM | 13 ± 1.01 nM | 38.5 ± 5.39 nM | 43 ± 14 nM | 41.9 ± 8.97% |  | 1.65 ± 1.65% |  |  |  |  |  | 
8 | Cc1cc(O)cc(C)c1C[C@H](N)C(=O)N[C@@H]1CCNc2ccc(C(c3ccccc3)c3ccccc3)cc21 [Compound 1022] | 0.2 ± 0.02 nM | 2.29 ± 0.36 nM | 6.91 ± 0.21 nM | 12.5 ± 8.76 nM | 24.5 ± 0.29% |  | 0% |  |  |  |  |  | 
9 | COc1cccc2c1CC(Cc1ccc3c(c1)[C@H](NC(=O)[C@@H](N)Cc1c(C)cc(O)cc1C)CCN3)C2 (stereo partly drawn) [Compound 1035, (2S)-2-amino-3-(4-hydroxy-2,6-dimethylphenyl)-N-((4R)-6-((4-methoxy-2,3-dihydro-1H-inden-2-yl)methyl)-1,2,3,4-tetrahydroquinolin-4-yl)propanamide] | 0.09 nM | 4.13 ± 2.27 nM |  | 1.44 nM | 32.9% |  |  | dns | dns |  |  |  | 
10 | COc1ccccc1Oc1ccc2c(c1)[C@H](NC(=O)[C@@H](N)Cc1c(C)cc(O)cc1C)CCN2 [Compound 1029] | 0.36 ± 0.04 nM | 9.97 ± 0.71 nM |  | 46.7 ± 4.12 nM | 35.7 ± 2.58% |  | 0% |  |  |  |  |  | 
11 | Cc1cc(O)cc(C)c1C[C@H](N)C(=O)N[C@@H]1CC[C@H](C)c2ccc(Cc3ccccc3)cc21 [Compound 1120] | 0.08 ± 0.02 nM | 5.85 ± 0.58 nM |  | 16 ± 1.94 nM | 72.3 ± 3.67% |  |  | dns | dns |  |  |  | 
12 | COc1cc(Cl)c(C[C@H](N)C(=O)N[C@@H]2CCNc3ccc(Cc4ccccc4)cc32)c(Cl)c1 [Compound 1021] | 38.1 ± 5.83 nM | 2700 nM | 1210 nM | 1390 ± 480 nM | 34.8 ± 2.52% |  |  |  |  |  |  |  | 
13 | CC(=O)N1CC[C@@H](NC(=O)[C@@H](N)Cc2c(C)cc(O)cc2C)c2cc(Cc3ccccc3)cc(Br)c21 [Compound 1108] | 0.49 nM | 1.35 nM | 33.3 nM |  |  |  |  |  |  |  |  |  | 
14 | COc1ccccc1Oc1ccc2c(c1)[C@H](NC(=O)[C@@H](N)Cc1c(C)cc(O)cc1C)CCN2C(C)=O [Compound 1031] | 0.27 ± 0.05 nM | 2.7 nM |  | 39.7 ± 17 nM | 30.5 ± 1.74% |  |  |  |  |  |  |  | 
15 | N[C@@H](Cc1c(Cl)cc(O)cc1Cl)C(=O)N[C@@H]1CCCc2ccc(Oc3ccccc3)cc21 [Compound 1119] | 1.53 ± 0.64 nM | 105 ± 10.5 nM |  | 118 ± 76 nM | 20.7 ± 2.91% |  |  | dns | dns |  |  |  | 
16 | CCC(=O)N1CC[C@@H](NC(=O)[C@@H](N)Cc2c(C)cc(O)cc2C)c2cc(CC3Cc4ccccc4C3)ccc21 [Compound 1033] | 0.06 ± 0.01 nM | 0.3 ± 0.11 nM |  | 3.61 ± 2.02 nM | 52 ± 7.7% |  |  | dns | dns |  |  |  | 
17 | COc1ccc2c(c1)CC(Cc1ccc3c(c1)[C@H](NC(=O)[C@@H](N)Cc1c(C)cc(O)cc1C)CCN3)C2 (stereo partly shown) [Compound 1037] | 0.26 ± 0.15 nM | 6.15 ± 2.09 nM |  | 354 nM | 10.9% |  |  | dns | dns |  |  |  | 
18 | CC(=O)N1CC[C@@H](NC(=O)[C@@H](N)Cc2c(C)cc(O)cc2C)c2cccc(Cc3ccccc3)c21 [Compound 1040] | 92.4 nM | 6.19 nM |  | 19 nM | 8.03% |  |  |  |  |  |  |  | 
19 | Cc1cc(O)cc(C)c1C[C@H](N)C(=O)N[C@@H]1CCNc2ccc(CN3CCC4(CCCCC4)C3)cc21 [Compound 1105] | 1.14 nM | 14.1 nM | 1.66 nM |  |  |  |  |  |  |  |  |  | 
20 | Cc1cc(O)cc(C)c1C[C@H](N)C(=O)N[C@@H]1CCNc2ccc(Oc3cccc(Cl)c3)cc21 [Compound 1030] | 0.08 ± 0.01 nM | 2.59 nM |  | 10.1 ± 3.25 nM | 27.2 ± 2.11% |  |  |  |  |  |  |  | 
21 | N[C@@H](Cc1ccc(Cl)cc1Cl)C(=O)N[C@@H]1CCNc2ccc(Cc3ccccc3)cc21 [Compound 1028] | 50.6 ± 10.6 nM | 2090 nM |  |  | 13.8 ± 1.27% |  | 0% |  |  |  |  |  | 
22 | Cc1cc(O)cc(C)c1C[C@H](N)C(=O)N[C@@H]1CCNc2ccc(CN3CCCC4(CCCCC4)CC3)cc21 [Compound 1106] | 0.54 nM | 17 nM | 3.08 nM |  |  |  |  |  |  |  |  |  | 
23 | Cc1cc(O)cc(C)c1C[C@H](N)C(=O)N[C@@H]1CCC(C)(C)c2ccc(Cc3ccccc3)cc21 [Compound 1122] | 0.36 ± 0.08 nM | 6.5 ± 0.66 nM |  | 16 ± 4.74 nM | 75.4 ± 4.06% | 1090 ± 654 nM | 16 ± 2.78% |  |  |  |  | 2100 nM | 77.8%
24 | CCCc1cc(Cc2ccccc2)cc2c1N(C(C)=O)CC[C@H]2NC(=O)[C@@H](N)Cc1c(C)cc(O)cc1C [Compound 1107] | 0.35 nM | 1.95 nM | 32.7 nM |  |  |  |  |  |  |  |  |  | 
